Converted amounts (≈) assume the structure as drawn.
Each molecule was assayed on Candida parapsilosis (assay: Antifungal activity against Candida parapsilosis ATCC 22019 after 24 hrs by micro broth dilution method). Conditions: Lodderomyces parapsilosis, ATCC 22019, 24 h.
Format: functional

Point of comparison: `OC(Cn1cncn1)(Cn1cncn1)c1ccc(F)cc1F` [FLUCONAZOLE], MIC80 6 µM (≈ 1.84 µg/mL). Against it:
- CCCCCN(CC(O)(Cn1cncn1)c1ccc(F)cc1F)c1nc(=O)[nH]cc1F (stereo not given) — 200-fold higher, 1170 µM (≈ 511 µg/mL)
- CCCCCCCCCCCCN(CC(O)(Cn1cncn1)c1ccc(F)cc1F)c1nc(=O)[nH]cc1F (stereo not given) — 160-fold higher, 950 µM (≈ 508 µg/mL)
- O=c1nc(N(Cc2ccc(Cl)cc2)CC(O)(Cn2cncn2)c2ccc(F)cc2F)c(F)c[nH]1 (stereo not given) — 22-fold higher, 130 µM (≈ 63.8 µg/mL)
- CCCCCCCCCCCCCCCCN(CC(O)(Cn1cncn1)c1ccc(F)cc1F)c1nc(=O)[nH]cc1F (stereo not given) — 140-fold higher, 860 µM (≈ 508 µg/mL)
- CCCCCCCCCCN(CC(O)(Cn1cncn1)c1ccc(F)cc1F)c1nc(=O)[nH]cc1F (stereo not given) — 170-fold higher, 1010 µM (≈ 512 µg/mL)
- CCN(CC(O)(Cn1cncn1)c1ccc(F)cc1F)c1nc(=O)[nH]cc1F (stereo not given) — 53-fold higher, 320 µM (≈ 126 µg/mL)
- O=c1nc(N(Cc2ccccc2)CC(O)(Cn2cncn2)c2ccc(F)cc2F)c(F)c[nH]1 (stereo not given) — 47-fold higher, 280 µM (≈ 128 µg/mL)
- Nc1nc(=O)[nH]cc1F [FLUCYTOSINE] — 160-fold higher, 990 µM (≈ 128 µg/mL)
- O=c1nc(N(Cc2ccc(Cl)cc2Cl)CC(O)(Cn2cncn2)c2ccc(F)cc2F)c(F)c[nH]1 (stereo not given) — 80-fold higher, 480 µM (≈ 252 µg/mL)
- CCCCCCCCN(CC(O)(Cn1cncn1)c1ccc(F)cc1F)c1nc(=O)[nH]cc1F (stereo not given) — 88-fold higher, 530 µM (≈ 254 µg/mL)

The molecules below were run on Aspergillus fumigatus (assay: Antifungal activity against Aspergillus fumigatus after 24 hrs by micro broth dilution method). Conditions: not given.
Format: functional

Point of comparison: `CCCCCCCCCCCCCCCCN(CC(O)(Cn1cncn1)c1ccc(F)cc1F)c1nc(=O)[nH]cc1F` (stereo not given), MIC80 1770 µM (≈ 1050 µg/mL). Against it:
- CCCCCN(CC(O)(Cn1cncn1)c1ccc(F)cc1F)c1nc(=O)[nH]cc1F (stereo not given) — 3.1-fold lower, 580 µM (≈ 253 µg/mL)
- CCCCCCCCCCCCN(CC(O)(Cn1cncn1)c1ccc(F)cc1F)c1nc(=O)[nH]cc1F (stereo not given) — within 1.5-fold, 1910 µM (≈ 1020 µg/mL)
- O=c1nc(N(Cc2ccc(Cl)cc2)CC(O)(Cn2cncn2)c2ccc(F)cc2F)c(F)c[nH]1 (stereo not given) — 14-fold lower, 130 µM (≈ 63.8 µg/mL)
- CCCCCCCCCCN(CC(O)(Cn1cncn1)c1ccc(F)cc1F)c1nc(=O)[nH]cc1F (stereo not given) — within 1.5-fold, 2020 µM (≈ 1020 µg/mL)
- CCN(CC(O)(Cn1cncn1)c1ccc(F)cc1F)c1nc(=O)[nH]cc1F (stereo not given) — 2.8-fold lower, 640 µM (≈ 252 µg/mL)
- O=c1nc(N(Cc2ccccc2)CC(O)(Cn2cncn2)c2ccc(F)cc2F)c(F)c[nH]1 (stereo not given) — 13-fold lower, 140 µM (≈ 63.9 µg/mL)
- Nc1nc(=O)[nH]cc1F [FLUCYTOSINE] — within 1.5-fold, 1980 µM (≈ 256 µg/mL)
- OC(Cn1cncn1)(Cn1cncn1)c1ccc(F)cc1F [FLUCONAZOLE] — within 1.5-fold, 1650 µM (≈ 505 µg/mL)
- O=c1nc(N(Cc2ccc(Cl)cc2Cl)CC(O)(Cn2cncn2)c2ccc(F)cc2F)c(F)c[nH]1 (stereo not given) — 7.4-fold lower, 240 µM (≈ 126 µg/mL)
- CCCCCCCCN(CC(O)(Cn1cncn1)c1ccc(F)cc1F)c1nc(=O)[nH]cc1F (stereo not given) — within 1.5-fold, 2130 µM (≈ 1020 µg/mL)

What follows are molecules tested on Candida albicans (assay: Antifungal activity against Candida albicans after 24 hrs by micro broth dilution method). Conditions: not given.
Format: functional

Point of comparison: `CCCCCCCCCCN(CC(O)(Cn1cncn1)c1ccc(F)cc1F)c1nc(=O)[nH]cc1F` (stereo not given), MIC80 1010 µM (≈ 512 µg/mL). Against it:
- CCCCCN(CC(O)(Cn1cncn1)c1ccc(F)cc1F)c1nc(=O)[nH]cc1F (stereo not given) — 1.7-fold lower, 580 µM (≈ 253 µg/mL)
- CCCCCCCCCCCCN(CC(O)(Cn1cncn1)c1ccc(F)cc1F)c1nc(=O)[nH]cc1F (stereo not given) — within 1.5-fold, 950 µM (≈ 508 µg/mL)
- O=c1nc(N(Cc2ccc(Cl)cc2)CC(O)(Cn2cncn2)c2ccc(F)cc2F)c(F)c[nH]1 (stereo not given) — 7.8-fold lower, 130 µM (≈ 63.8 µg/mL)
- CCCCCCCCCCCCCCCCN(CC(O)(Cn1cncn1)c1ccc(F)cc1F)c1nc(=O)[nH]cc1F (stereo not given) — within 1.5-fold, 860 µM (≈ 508 µg/mL)
- CCN(CC(O)(Cn1cncn1)c1ccc(F)cc1F)c1nc(=O)[nH]cc1F (stereo not given) — 6.3-fold lower, 160 µM (≈ 63.1 µg/mL)
- O=c1nc(N(Cc2ccccc2)CC(O)(Cn2cncn2)c2ccc(F)cc2F)c(F)c[nH]1 (stereo not given) — 3.6-fold lower, 280 µM (≈ 128 µg/mL)
- Nc1nc(=O)[nH]cc1F [FLUCYTOSINE] — 2.1-fold lower, 490 µM (≈ 63.3 µg/mL)
- OC(Cn1cncn1)(Cn1cncn1)c1ccc(F)cc1F [FLUCONAZOLE] — 5-fold lower, 200 µM (≈ 61.3 µg/mL)
- O=c1nc(N(Cc2ccc(Cl)cc2Cl)CC(O)(Cn2cncn2)c2ccc(F)cc2F)c(F)c[nH]1 (stereo not given) — 4.2-fold lower, 240 µM (≈ 126 µg/mL)
- CCCCCCCCN(CC(O)(Cn1cncn1)c1ccc(F)cc1F)c1nc(=O)[nH]cc1F (stereo not given) — within 1.5-fold, 1060 µM (≈ 507 µg/mL)

These molecules were tested on Candida albicans (assay: Antifungal activity against Candida albicans ATCC 90023 after 24 hrs by micro broth dilution method). Conditions: ATCC 90023, 24 h.
Format: functional

Point of comparison: `O=c1nc(N(Cc2ccccc2)CC(O)(Cn2cncn2)c2ccc(F)cc2F)c(F)c[nH]1` (stereo not given), MIC80 280 µM (≈ 128 µg/mL). Against it:
- CCCCCN(CC(O)(Cn1cncn1)c1ccc(F)cc1F)c1nc(=O)[nH]cc1F (stereo not given) — 2.1-fold higher, 580 µM (≈ 253 µg/mL)
- CCCCCCCCCCCCN(CC(O)(Cn1cncn1)c1ccc(F)cc1F)c1nc(=O)[nH]cc1F (stereo not given) — 6.8-fold higher, 1910 µM (≈ 1020 µg/mL)
- O=c1nc(N(Cc2ccc(Cl)cc2)CC(O)(Cn2cncn2)c2ccc(F)cc2F)c(F)c[nH]1 (stereo not given) — 2.2-fold lower, 130 µM (≈ 63.8 µg/mL)
- CCCCCCCCCCCCCCCCN(CC(O)(Cn1cncn1)c1ccc(F)cc1F)c1nc(=O)[nH]cc1F (stereo not given) — 6.2-fold higher, 1730 µM (≈ 1020 µg/mL)
- CCCCCCCCCCN(CC(O)(Cn1cncn1)c1ccc(F)cc1F)c1nc(=O)[nH]cc1F (stereo not given) — 7.2-fold higher, 2020 µM (≈ 1020 µg/mL)
- CCN(CC(O)(Cn1cncn1)c1ccc(F)cc1F)c1nc(=O)[nH]cc1F (stereo not given) — within 1.5-fold, 320 µM (≈ 126 µg/mL)
- Nc1nc(=O)[nH]cc1F [FLUCYTOSINE] — 9.3-fold lower, 30 µM (≈ 3.87 µg/mL)
- OC(Cn1cncn1)(Cn1cncn1)c1ccc(F)cc1F [FLUCONAZOLE] — 93-fold lower, 3 µM (≈ 0.919 µg/mL)
- O=c1nc(N(Cc2ccc(Cl)cc2Cl)CC(O)(Cn2cncn2)c2ccc(F)cc2F)c(F)c[nH]1 (stereo not given) — 2.3-fold lower, 120 µM (≈ 63 µg/mL)
- CCCCCCCCN(CC(O)(Cn1cncn1)c1ccc(F)cc1F)c1nc(=O)[nH]cc1F (stereo not given) — 1.9-fold higher, 530 µM (≈ 254 µg/mL)

These molecules were tested on Candida tropicalis (assay: Antifungal activity against Candida tropicalis after 24 hrs by micro broth dilution method). Conditions: not given.
Format: functional

Point of comparison: `CCCCCCCCCCCCCCCCN(CC(O)(Cn1cncn1)c1ccc(F)cc1F)c1nc(=O)[nH]cc1F` (stereo not given), MIC80 860 µM (≈ 508 µg/mL). Against it:
- CCCCCN(CC(O)(Cn1cncn1)c1ccc(F)cc1F)c1nc(=O)[nH]cc1F (stereo not given) — 3-fold lower, 290 µM (≈ 127 µg/mL)
- CCCCCCCCCCCCN(CC(O)(Cn1cncn1)c1ccc(F)cc1F)c1nc(=O)[nH]cc1F (stereo not given) — within 1.5-fold, 950 µM (≈ 508 µg/mL)
- O=c1nc(N(Cc2ccc(Cl)cc2)CC(O)(Cn2cncn2)c2ccc(F)cc2F)c(F)c[nH]1 (stereo not given) — 6.6-fold lower, 130 µM (≈ 63.8 µg/mL)
- CCCCCCCCCCN(CC(O)(Cn1cncn1)c1ccc(F)cc1F)c1nc(=O)[nH]cc1F (stereo not given) — within 1.5-fold, 1010 µM (≈ 512 µg/mL)
- CCN(CC(O)(Cn1cncn1)c1ccc(F)cc1F)c1nc(=O)[nH]cc1F (stereo not given) — within 1.5-fold, 640 µM (≈ 252 µg/mL)
- O=c1nc(N(Cc2ccccc2)CC(O)(Cn2cncn2)c2ccc(F)cc2F)c(F)c[nH]1 (stereo not given) — 3.1-fold lower, 280 µM (≈ 128 µg/mL)
- Nc1nc(=O)[nH]cc1F [FLUCYTOSINE] — 2.3-fold higher, 1980 µM (≈ 256 µg/mL)
- OC(Cn1cncn1)(Cn1cncn1)c1ccc(F)cc1F [FLUCONAZOLE] — within 1.5-fold, 830 µM (≈ 254 µg/mL)
- O=c1nc(N(Cc2ccc(Cl)cc2Cl)CC(O)(Cn2cncn2)c2ccc(F)cc2F)c(F)c[nH]1 (stereo not given) — 7.2-fold lower, 120 µM (≈ 63 µg/mL)
- CCCCCCCCN(CC(O)(Cn1cncn1)c1ccc(F)cc1F)c1nc(=O)[nH]cc1F (stereo not given) — within 1.5-fold, 1060 µM (≈ 507 µg/mL)
